In patent US8546404B2, “Compounds that are ERK inhibitors” (Merck Sharp & Dohme, priority 2005, dated 2013) one finds IC50 data, which are given here for 38 compounds.

Where “and” joins values, the source holds several entries; their conditions need not be identical. Identical values can stand only once.

Chain of fully phosphorylated, active Mouse ERK2 protein (P63085 whole entry): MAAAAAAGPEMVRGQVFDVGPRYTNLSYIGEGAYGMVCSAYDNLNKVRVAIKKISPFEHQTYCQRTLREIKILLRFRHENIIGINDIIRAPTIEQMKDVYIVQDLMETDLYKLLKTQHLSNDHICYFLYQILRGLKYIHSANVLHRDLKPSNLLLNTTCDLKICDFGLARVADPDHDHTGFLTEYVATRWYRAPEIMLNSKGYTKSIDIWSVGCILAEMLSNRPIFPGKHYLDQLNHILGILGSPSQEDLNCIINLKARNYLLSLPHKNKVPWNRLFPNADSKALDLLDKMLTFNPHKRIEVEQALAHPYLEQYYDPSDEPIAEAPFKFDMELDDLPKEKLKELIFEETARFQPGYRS

This test addresses fully phosphorylated, active Mouse ERK2 protein (Mus musculus (Mouse), UniProt P63085). The test is described as follows: Active ERK2 Assay (IMAP format). Format: biochemical. To be noted: read-out: AERK2 IC50. The method, then:
Activated ERK2 activity was also determined in the IMAP assay format using the procedure outlined above. […] Reactions proceeded for 30 minutes before termination by addition of 60 μl IMAP detection beads in binding buffer. Plates were read as above after 30 minute binding equilibration.
Turning to `CC(C)(C)OC(=O)N1CCC(O)(c2nccs2)CC1` [Example 132, 4-Hydroxy-4-thiazol-2-yl-piperidine-1-carboxylic acid tert-butyl ester], the half-maximal inhibitory concentration (IC50) was 160 to 18000 pM.

On to `CNC(=O)c1n[nH]c2ccc(NC(=O)C3CCN(CC(=O)N4CCC(C#Cc5ncccn5)CC4)C3)cc12` (centres unmarked) [Example 142, 5-({1-[2-oxo-2-(4-pyrimidin-2-ylethynyl-piperidin-1-yl)-ethyl]-pyrrolidine-3-carbonyl}-amino)-1H-indazole-3-carboxylic acid methylamide], for which the IC50 lay within 160 to 18000 pM.

Take `CNC(=O)c1n[nH]c2ccc(NC(=O)[C@@H]3CCN(CC(=O)N4C[C@@H]5C[C@H]4CN5c4ccc(-c5ncccn5)cc4)C3)cc12` [Example 152]: the concentration for half-maximal inhibition (IC50) lay within 160 to 18000 pM.

Regarding `CNC(=O)c1n[nH]c2ccc(NC(=O)[C@@H]3CCN(CC(=O)N4C[C@@H]5C[C@H]4CN5c4ccc(-c5ncc(C)cn5)cc4)C3)cc12` [Example 154], the IC50 lay within 160 to 18000 pM.

Take `CNC(=O)c1n[nH]c2ccc(NC(=O)[C@@H]3CCN(CC(=O)N4CC=C(c5nccs5)CC4)C3)cc12` [Example 168]: the concentration for half-maximal inhibition (IC50) fell in the range of 160 to 18000 pM.

As to `CNC(=O)c1n[nH]c2ccc(NC(=O)[C@@H]3CCN(CC(=O)N4CCC(c5ccc(-c6ncccn6)cc5)CC4)C3)cc12` [Example 176], the IC50 lay in the range of 160 to 18000 pM.

As for `O=C(Nc1ccc2[nH]nc(-c3ccncc3)c2c1)[C@@H]1CCN(CC(=O)N2C[C@@H]3C[C@H]2CN3c2ccc(-c3ncc(F)cn3)cc2)C1` [Example 183], the half-inhibitory concentration (IC50) was 160 to 18000 pM and 160 to 1500 pM and 160 pM.

For `O=C(Nc1ccc2[nH]nc(-c3ccc(F)cc3)c2c1)[C@@H]1CCN(CC(=O)N2C[C@@H]3C[C@H]2CN3c2ccc(-c3ncccn3)cc2)C1` [Example 184], the half-inhibitory concentration (IC50) was 160 to 18000 pM and 160 to 1500 pM.

In the case of `O=C(Nc1ccc2[nH]nc(-c3ccncc3)c2c1)[C@@H]1CCN(CC(=O)N2CCN(c3ccc(-c4ncc(F)cn4)cc3)CC2)C1` [Example 186], the IC50 was 160 to 18000 pM and 160 to 1500 pM and 780 pM.

Take `C=Cc1cnc(N2C[C@@H]3C[C@H]2CN3C(=O)CN2CC[C@@H](C(=O)Nc3ccc4[nH]nc(-c5ccncc5)c4c3)C2)nc1` [Example 250]: the IC50 is 160 to 18000 pM.

With `O=C(CN1CCC(CF)(C(=O)Nc2ccc3[nH]nc(-c4ccc(F)cc4)c3c2)C1)N1C[C@@H]2C[C@H]1CN2c1ccc(-c2ncccn2)cc1` (some centres unmarked) [Example 251], the IC50 lay within 160 to 18000 pM.

For the compound `C=CCC1(C(=O)Nc2ccc3[nH]nc(-c4ccncc4)c3c2)CCN(CC(=O)N2CCN(c3ccc(-c4cnccn4)cc3)CC2)C1` (centres unmarked) [Example 261], the IC50 is 160 to 18000 pM and 160 to 1500 pM.

Regarding `COCC1(C(=O)Nc2ccc3[nH]nc(-c4ccncc4)c3c2)CCN(CC(=O)N2CCN(c3ccc(-c4ncccn4)cc3)CC2)C1` (centres unmarked) [Example 264], the IC50 was 160 to 18000 pM.

For `O=C(CN1CCC(CF)(C(=O)Nc2ccc3[nH]nc(-c4ccncc4)c3c2)C1)N1C[C@@H]2C[C@H]1CN2c1ccc(-c2ncccn2)cc1` (some centres unmarked) [Example 269], the IC50 was in the range of 160 to 18000 pM.

For `C=CCC1(C(=O)Nc2ccc3[nH]nc(-c4ccncc4)c3c2)CCN(CC(=O)N2C[C@@H]3C[C@H]2CN3c2ccc(-c3ncc(F)cn3)cc2)C1` (some centres unmarked) [Example 271], the concentration for half-maximal inhibition (IC50) fell in the range of 160 to 18000 pM.

Take `O=C(CN1CCC(CF)(C(=O)Nc2ccc3[nH]nc(-c4ccncc4)c3c2)C1)N1CCN(c2nccs2)CC1` (centres unmarked) [Example 282]: the IC50 fell in the range of 160 to 18000 pM.

`O=C(CN1CCC(CN2CCOCC2)(C(=O)Nc2ccc3[nH]nc(-c4ccncc4)c3c2)C1)N1CCN(c2nccs2)CC1` (centres unmarked) [Example 286]: the IC50 was 160 to 18000 pM.

As for `C=CCC1(C(=O)Nc2ccc3[nH]nc(-c4ccncc4)c3c2)CCN(CC(=O)N2CCN(c3ccc(-c4ncccn4)cc3)CC2)C1` (centres unmarked) [Example 289], the IC50 was 160 to 18000 pM.

Turning to `CCCC1(C(=O)Nc2ccc3[nH]nc(-c4ccncc4)c3c2)CCN(CC(=O)N2CCN(c3ccc(-c4ncccn4)cc3)CC2)C1` (centres unmarked) [Example 290], the half-maximal inhibitory concentration (IC50) fell in the range of 160 to 18000 pM.

For the compound `C#CCC1(C(=O)Nc2ccc3[nH]nc(-c4ccncc4)c3c2)CCN(CC(=O)N2CCN(c3ccc(-c4ncccn4)cc3)CC2)C1` (centres unmarked) [Example 292], the half-maximal inhibitory concentration (IC50) was in the range of 160 to 18000 pM.

With `C=CCC1(C(=O)Nc2ccc3[nH]nc(-c4ccncc4)c3c2)CCN(CC(=O)N2CCN(c3ccc(-c4ncc(F)cn4)cc3)CC2)C1` (centres unmarked) [Example 294], the 50% inhibitory concentration (IC50) lay within 160 to 18000 pM.

`COCC1(C(=O)Nc2ccc3[nH]nc(-c4ccncc4)c3c2)CCN(CC(=O)N2CCN(c3ccc(-c4ncc(F)cn4)cc3)CC2)C1` (centres unmarked) [Example 302]: the IC50 lay in the range of 160 to 18000 pM.

On to `COCC1(C(=O)Nc2ccc3[nH]nc(-c4ccncc4)c3c2)CCN(CC(=O)N2C[C@@H]3C[C@H]2CN3c2ccc(-c3ncc(F)cn3)cc2)C1` (some centres unmarked) [Example 303], for which the IC50 lay in the range of 160 to 18000 pM.

Take `COCC1(C(=O)Nc2ccc3[nH]nc(-c4ccncc4)c3c2)CCN(CC(=O)N2CCN(c3ccc(-c4ncccn4)cn3)C[C@H]2C)C1` (some centres unmarked) [Example 304]: the IC50 was in the range of 160 to 18000 pM.

Turning to `COCC1(C(=O)Nc2ccc3[nH]nc(-c4ccncc4)c3c2)CCN(CC(=O)N2CC=C(c3nccs3)CC2)C1` (centres unmarked) [Example 306], the half-inhibitory concentration (IC50) lay in the range of 160 to 18000 pM.

For `O=C(Nc1ccc2[nH]nc(-c3ccncc3)c2c1)[C@@H]1CCN(CC(=O)N2CCc3ccccc3C2)C1` [Example 332], the IC50 was 160 to 18000 pM.

On to `O=C(Nc1ccc2[nH]nc(-c3ccncc3)c2c1)[C@@H]1CCN(CC(=O)N2CCc3ncccc3C2)C1` [Example 333], for which the IC50 is 160 to 18000 pM.

On to `CSC1(C(=O)Nc2ccc3[nH]nc(-c4ccc(F)cc4)c3c2)CCN(CC(=O)N2CCN(c3ccc(-c4ncccn4)cc3)CC2)C1` (centres unmarked) [Example 338], for which the half-inhibitory concentration (IC50) lay in the range of 160 to 18000 pM.

Regarding `CCOC1(C(=O)Nc2ccc3[nH]nc(-c4ccnc(C)c4)c3c2)CCN(CC(=O)N2CCN(c3ccc(-c4ncccn4)cc3)CC2)C1` (centres unmarked) [Example 343], the IC50 was in the range of 160 to 18000 pM.

On to `CO[C@@]1(C(=O)Nc2ccc3[nH]nc(-c4ccc(F)cc4)c3c2)CCN(CC(=O)N2CC=C(c3ccc(-c4ncccn4)cc3F)CC2)C1` [Example 606], for which the 50% inhibitory concentration (IC50) is 160 to 18000 pM.

Consider `CON(C(=O)[C@@H]1CCN(CC(=O)N2CC=C(c3ccc(-c4ncccn4)cc3)CC2)C1)c1ccc2[nH]nc(-c3ccncc3)c2c1` [Example 611], for which the half-inhibitory concentration (IC50) fell in the range of 160 to 18000 pM.

With `CS(=O)(=O)[C@@]1(C(=O)Nc2ccc3[nH]nc(-c4ccnc(C5CC5)c4)c3c2)CCN(CC(=O)N2CC=C(c3ccc(-c4ncccn4)cc3)CC2)C1` [Example 634], the half-inhibitory concentration (IC50) lay within 160 to 18000 pM.

With `CS(=O)(=O)[C@@]1(C(=O)Nc2ccc3[nH]nc(-c4ccnc(C5CC5)c4)c3c2)CCN(CC(=O)N2CCC(c3ccc(-c4ncccn4)cc3)CC2)C1` [Example 635], the half-inhibitory concentration (IC50) is 160 to 18000 pM.

As to `CS[C@@]1(C(=O)Nc2ccc3[nH]nc(-c4ccnc(C5CC5)c4)c3c2)CCN(CC(=O)N2CC=C(c3ccc(-c4ncccn4)cc3)CC2)C1` [Example 639], the half-inhibitory concentration (IC50) lay in the range of 160 to 18000 pM.

As for `CS[C@@]1(C(=O)Nc2ccc3[nH]nc(-c4ccc(F)cc4)c3c2)CCN(CC(=O)N2CCN(c3ccc(-c4ncccn4)cn3)C[C@H]2C)C1` [Example 641], the half-inhibitory concentration (IC50) lay within 160 to 18000 pM.

Turning to `CS[C@@]1(C(=O)Nc2ccc3[nH]nc(-c4ccc(F)cc4)c3c2)CCN(CC(=O)N2CCN(c3ccc(-c4ncccn4)cc3)CC2)C1` [Example 647], the IC50 lay in the range of 160 to 18000 pM.

As for `CS[C@@]1(C(=O)Nc2ccc3[nH]nc(-c4ccnc(C5CC5)c4)c3c2)CCN(CC(=O)N2CC=C(c3ccc(-c4ncccn4)cc3F)CC2)C1` [Example 651], the IC50 fell in the range of 160 to 18000 pM.

`CO[C@@]1(C(=O)Nc2ccc3[nH]nc(-c4ccc(F)cc4)c3c2)CCN(CC(=O)N2CC=C(c3ccc(-c4ncc(F)cn4)c(F)c3)CC2)C1` [Example 661]: the 50% inhibitory concentration (IC50) fell in the range of 160 to 18000 pM.

As a reminder, the IC50 is the concentration at which inhibition is half-maximal.
